Measured values published in PMC5976239 (Journal of medicinal chemistry, 2017).
Values after ≈ are worked out from the molar mass of the structure shown. Read-outs that look alike come from different tables or passages of the source.

Assays:
[1] = system: C. glabrata ATCC 2001 (strain H); test: Time-kill assay; type: cell-based, Candida glabrata; conditions: 24 h, compound 22 at 4× MIC, VOR at 1× and 4× MIC
Hemolytic activity assay = type: cell-based; conditions: mouse, murine red blood cells (mRBCs)
[2] = system: C. parapsilosis ATCC 22019 (strain J); test: Time-kill assay; type: cell-based, Candida parapsilosis; conditions: 24 h, at up to 8× MIC
HEK-293 = test: In vitro cytotoxicity assay; type: cell-based; conditions: 24 h; for toxicity to mammalian cells (in words): 18 and 20 at 7.8 µg/mL
A549 = test: In vitro cytotoxicity assay; type: cell-based; conditions: 24 h
[3] = system: C. albicans ATCC 64124 (strain B) biofilms; test: Biofilm assay
BEAS-2B = test: In vitro cytotoxicity assay; type: cell-based; conditions: 24 h; for toxicity to mammalian cells (in words): 18 and 20 at 7.8 µg/mL
[4] = system: Candida albicans ATCC 10231 (A); test: MIC determination in the presence and absence of FBS; type: cell-based; conditions: for antifungal activity in the presence of FBS (in words): strains A, J, and L, +10% FBS versus no FBS; for MIC: Candida albicans, ATCC10231, read-out: MIC, Candida albicans ATCC 10231 (A) (no FBS)
[5] = system: C. albicans ATCC 64124(R) (B); test: MIC determination by in vitro antifungal assay; type: cell-based; conditions: Candida albicans, ATCC64124, 48 h
[6] = system: C. albicans ATCC 90819(R) (D); test: MIC determination by in vitro antifungal assay; type: cell-based; conditions: Candida albicans, ATCC90819, 48 h
[7] = system: Aspergillus flavus ATCC MYA-3631 (K); test: MIC determination against filamentous fungi; type: cell-based; conditions: 48 h, read-out: MIC (MIC-0)
[8] = system: C. albicans ATCC MYA-1003(R) (G); test: MIC determination by in vitro antifungal assay; type: cell-based; conditions: Candida albicans, 48 h
[9] = system: C. albicans ATCC 10231 (strain A); test: Membrane permeabilization assay using propidium iodide staining; type: cell-based, Candida albicans; conditions: 1 h at 35 °C; 20 and 26 at 4 × MIC, KANB (C14) at 2 × MIC ([…]), FLC at 7.8 µg/mL
[10] = system: C. albicans ATCC 10231 (strain A); test: Time-kill assay; type: cell-based, Candida albicans; conditions: 24 h, compound 20 at 4× MIC, VOR at 1× and 4× MIC
[11] = system: Aspergillus terreus ATCC MYA-3633 (M); test: MIC determination against filamentous fungi; type: cell-based; conditions: 48 h, read-out: MIC (MIC-0)
[12] = system: Candida albicans ATCC 10231 (A); test: MIC determination by in vitro antifungal assay; type: cell-based; conditions: ATCC10231, 48 h, read-out: MIC (MIC-0)
[13] = system: C. albicans ATCC MYA-1237(R) (F); test: MIC determination by in vitro antifungal assay; type: cell-based; conditions: Candida albicans, 48 h
[14] = system: Aspergillus nidulans ATCC 38163 (L); test: MIC determination against filamentous fungi; type: cell-based; conditions: ATCC38163, 48 h, read-out: MIC (MIC-0)
[15] = system: C. albicans ATCC MYA-2876(S) (C); test: MIC determination by in vitro antifungal assay; type: cell-based; conditions: Candida albicans, 48 h
[16] = system: C. albicans, non-albicans Candida, and Aspergillus strains; test: Antifungal activity over the panel of 13 fungal strains; type: cell-based; conditions: read-out: antifungal activity class based on MIC values
[17] = system: C. albicans ATCC MYA-2310(S) (E); test: MIC determination by in vitro antifungal assay; type: cell-based; conditions: Candida albicans, 48 h
[18] = system: Aspergillus nidulans ATCC 38163 (L); test: MIC determination in the presence and absence of FBS; type: cell-based; conditions: ATCC38163, read-out: MIC, Aspergillus nidulans ATCC 38163 (L) (no FBS)

| increase in MIC in biofilms (SMIC50 and SMIC80 versus MIC in liquid cultures) [3] | MIC ([5]; read-out: MIC (MIC-0)) | MIC ([6]; read-out: MIC (MIC-0)) | MIC [7] | MIC ([8]; read-out: MIC (MIC-0)) | MIC [11] | MIC [12] | MIC [14] | MIC [18] | MIC [4] | Structure (SMILES) | hemolysis at 60 min, 7.8 µg/mL (Hemolytic activity assay) | antifungal activity in the presence of FBS (in words) [4] | toxicity to mammalian cells (in words) (HEK-293) | propidium iodide (PI) dye uptake by fungal cells [9] | toxicity to mammalian cells (in words) (A549) | toxicity to mammalian cells (in words) (BEAS-2B) | further results |
| --- | --- | --- | --- | --- | --- | --- | --- | --- | --- | --- | --- | --- | --- | --- | --- | --- | --- |
| 1–2 fold | – | – | – | – | – | – | – | – | – | CCCCCCCCCCCCN1CCN(CC(O)(Cn2cncn2)c2ccc(F)cc2F)CC1 (stereo not shown) [Compound 22, 2-(2,4-Difluorophenyl)-1-(1H-1,2,4-triazol-1-yl)-3-(4-dodecylpiperazine)propan-2-ol] | > 50% | retained their full antifungal activity | – | – | – | – | fungistatic or fungicidal activity (time-kill) [1]: fungicidal; fungistatic or fungicidal activity (time-kill) [2]: fungistatic; cell survival (HEK-293; 7.8 µg/mL): less than 40%; cell survival (A549; 7.8 µg/mL): less than 40%; cell survival (BEAS-2B; 7.8 µg/mL): less than 40% |
| 4–16 fold | 3.9 µg/mL (≈ 8.41 µM) | 3.9 µg/mL (≈ 8.41 µM) | 0.24 µg/mL (≈ 0.518 µM) | 3.9 µg/mL (≈ 8.41 µM) | – | – | – | – | – | CCCCCCCCCCN1CCN(CC(O)(Cn2cncn2)c2ccc(F)cc2F)CC1 (stereo not shown) [Compound 20, 2-(2,4-Difluorophenyl)-1-(1H-1,2,4-triazol-1-yl)-3-(4-decylpiperazine)propan-2-ol] | – | retained their full antifungal activity | some toxicity | neither compound 20 nor 26 (at 4 × MIC) induced cellular uptake of PI dye | no toxicity at up to 7.8 µg/mL | some toxicity | fungistatic or fungicidal activity (time-kill) [2]: fungistatic; fungistatic or fungicidal activity (time-kill) [10]: fungicidal |
| 2–4 fold | 7.8 µg/mL (≈ 14.9 µM) | – | – | – | – | – | – | – | – | CCCCCCCCCCCCN1CCN(CC(O)(Cn2cncn2)c2ccc(Cl)cc2Cl)CC1 (stereo not shown) [Compound 26, 2-(2,4-Dichlorophenyl)-1-(1H-1,2,4-triazol-1-yl)-3-(4-dodecylpiperazine)propan-2-ol] | 85% | retained their full antifungal activity | – | neither compound 20 nor 26 (at 4 × MIC) induced cellular uptake of PI dye | – | – | – |
| 16–64 fold | 0.975 µg/mL (≈ 3.45 µM) | 1.95 µg/mL (≈ 6.9 µM) | 0.975 µg/mL (≈ 3.45 µM) | 1.95 µg/mL (≈ 6.9 µM) | 0.975 µg/mL (≈ 3.45 µM) | 0.975 µg/mL (≈ 3.45 µM) | 0.975 µg/mL (≈ 3.45 µM) | 0.975 µg/mL (≈ 3.45 µM) | 0.975 µg/mL (≈ 3.45 µM) | CCCCCCCCCCCCCCN1CCNCC1 [Compound 9, 1-Tetradecyl Piperazine] | 93% | – | toxic | – | toxic | toxic | MIC ([13]; read-out: MIC (MIC-0)): 1.95 µg/mL (≈ 6.9 µM); MIC ([15]; read-out: MIC (MIC-0)): 0.975 µg/mL (≈ 3.45 µM); MIC [16]: 0.015 to 1.95 µg/mL (≈ 0.0531 to 6.9 µM); MIC ([17]; read-out: MIC (MIC-0)): 0.975 µg/mL (≈ 3.45 µM) |
| – | 31.3 µg/mL (≈ 71.9 µM) | 15.6 µg/mL (≈ 35.8 µM) | 1.95 µg/mL (≈ 4.48 µM) | 0.975 to 31.3 µg/mL (≈ 2.24 to 71.9 µM) | 3.9 µg/mL (≈ 8.95 µM) | 3.9 µg/mL (≈ 8.95 µM) | 3.9 µg/mL (≈ 8.95 µM) | – | – | CCCCCCCCN1CCN(CC(O)(Cn2cncn2)c2ccc(F)cc2F)CC1 (stereo not shown) [Compound 18, 2-(2,4-Difluorophenyl)-1-(1H-1,2,4-triazol-1-yl)-3-(4-octylpiperazine)propan-2-ol] | – | – | some toxicity | – | nontoxic to A549 at up to 15.5 µg/mL | some toxicity | hemolysis at 60 min, 62.5 µg/mL (Hemolytic activity assay): < 10%; MIC ([13]; read-out: MIC (MIC-0)): 31.3 µg/mL (≈ 71.9 µM); MIC ([15]; read-out: MIC (MIC-0)): 31.3 µg/mL (≈ 71.9 µM); MIC ([17]; read-out: MIC (MIC-0)): > 31.3 µg/mL |

The next lines start with the molecule.

| Structure (SMILES) | increase in MIC in biofilms (SMIC50 and SMIC80 versus MIC in liquid cultures) [3] | MIC ([5]; read-out: MIC (MIC-0)) | MIC ([6]; read-out: MIC (MIC-0)) | MIC [7] | MIC ([8]; read-out: MIC (MIC-0)) | MIC [11] | MIC [12] | MIC [14] | MIC [18] | MIC [4] | hemolysis at 60 min, 7.8 µg/mL (Hemolytic activity assay) | antifungal activity in the presence of FBS (in words) [4] | toxicity to mammalian cells (in words) (HEK-293) | propidium iodide (PI) dye uptake by fungal cells [9] | toxicity to mammalian cells (in words) (A549) | toxicity to mammalian cells (in words) (BEAS-2B) | further results |
| --- | --- | --- | --- | --- | --- | --- | --- | --- | --- | --- | --- | --- | --- | --- | --- | --- | --- |
| C[C@@H](c1ncncc1F)[C@](O)(Cn1cncn1)c1ccc(F)cc1F [VOR, voriconazole, reference compound] | – | – | – | – | – | – | – | – | – | – | – | – | – | – | – | – | fungistatic or fungicidal activity (time-kill) [1]: fungistatic; MIC ([5]; read-out: MIC (MIC-2)): 3.9 µg/mL (≈ 11.2 µM); MIC ([6]; read-out: MIC (MIC-2)): 1.95 µg/mL (≈ 5.58 µM); MIC ([8]; read-out: MIC (MIC-2)): 1.95 µg/mL (≈ 5.58 µM); MIC ([13]; read-out: MIC (MIC-2)): 7.8 µg/mL (≈ 22.3 µM); MIC ([15]; read-out: MIC (MIC-2)): 1.95 µg/mL (≈ 5.58 µM); fungistatic or fungicidal activity (time-kill) [10]: fungistatic; MIC ([17]; read-out: MIC (MIC-2)): 0.975 µg/mL (≈ 2.79 µM) |
| OC(Cn1cncn1)(Cn1cncn1)c1ccc(F)cc1F [FLC, fluconazole, reference compound] | – | – | – | – | – | – | – | – | – | – | – | – | – | did not allow for PI uptake | – | – | MIC ([5]; read-out: MIC (MIC-2)): > 125 µg/mL; MIC ([6]; read-out: MIC (MIC-2)): > 125 µg/mL; MIC ([15]; read-out: MIC (MIC-2)): 15.6 µg/mL (≈ 50.9 µM); MIC ([17]; read-out: MIC (MIC-2)): > 125 µg/mL |
| C[C@@H]1[C@H](O)[C@@H](C)/C=C/C=C/C=C/C=C/C=C/C=C/C=C/[C@H](O[C@@H]2O[C@H](C)[C@@H](O)[C@H](N)[C@@H]2O)C[C@@H]2O[C@](O)(C[C@@H](O)C[C@@H](O)[C@H](O)CC[C@@H](O)C[C@@H](O)CC(=O)O[C@H]1C)C[C@H](O)[C@H]2C(=O)O [AmB, amphotericin B, reference compound] | – | 3.9 µg/mL (≈ 4.22 µM) | 0.975 µg/mL (≈ 1.06 µM) | – | 3.9 µg/mL (≈ 4.22 µM) | 3.9 µg/mL (≈ 4.22 µM) | 3.9 µg/mL (≈ 4.22 µM) | 3.9 µg/mL (≈ 4.22 µM) | 3.9 µg/mL (≈ 4.22 µM) | 3.9 µg/mL (≈ 4.22 µM) | – | – | – | – | – | – | – |
| CCCCCCCCCCCCN1CCNCC1 [Compound 7] | 1–4 fold | – | – | – | – | – | 1.95 µg/mL (≈ 7.66 µM) | 1.95 µg/mL (≈ 7.66 µM) | 1.95 µg/mL (≈ 7.66 µM) | 1.95 µg/mL (≈ 7.66 µM) | 52% | – | toxic | – | toxic | toxic | – |
| CCCCCCCCCCCCCCOC[C@H]1O[C@H](O[C@@H]2[C@@H](O)[C@H](O[C@H]3O[C@H](CN)[C@@H](O)[C@H](O)[C@H]3N)[C@@H](N)C[C@H]2N)[C@H](O)[C@@H](N)[C@@H]1O [KANB (C14), reference compound] | – | – | – | – | – | – | – | – | – | – | – | – | – | significantly increased PI dye uptake | – | – | – |
